Test results taken from ChEMBL document CHEMBL6103552, “Identification of peptide-based hepatitis B virus capsid inhibitors based on the viral core protein” (Bioorg Med Chem Lett, 2025).
The source made the active and inactive calls. The rule behind the calls is not given here. Residues, ends and D or L forms follow the SMILES beside them.

Each compound was assayed against Core antigen (Hepatitis B virus) (UniProt Q03732) (assay: Inhibition of Hepatitis B virus capsid formation at 100 uM treated during cell-free wild type HBV Cp synthesis using wheat germ lysates and HBV Cp RNA by Native capsid assay based western blot analysis).
Assay type: subcellular

Core antigen (Hepatitis B virus), sequence (Q03732 as listed by the source): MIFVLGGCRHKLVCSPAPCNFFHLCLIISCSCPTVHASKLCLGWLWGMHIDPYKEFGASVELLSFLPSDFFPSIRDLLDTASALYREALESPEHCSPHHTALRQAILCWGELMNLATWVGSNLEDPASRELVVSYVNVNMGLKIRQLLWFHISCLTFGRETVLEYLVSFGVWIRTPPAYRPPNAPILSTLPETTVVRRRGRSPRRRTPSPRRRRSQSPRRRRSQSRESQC

Row | Structure (SMILES) | inhibition
1 | CSCC[C@H](NC(=O)[C@H](CC(N)=O)NC(=O)[C@@H](NC(=O)[C@H](CC(N)=O)NC(=O)[C@@H](NC(=O)[C@H](Cc1ccc(O)cc1)NC(=O)[C@H](CO)NC(=O)[C@@H](NC(C)=O)C(C)C)C(C)C)C(C)C)C(=O)NCC(=O)N[C@@H](CC(C)C)C(=O)N[C@@H](CCCCN)C(=O)N[C@@H](Cc1ccccc1)C(=O)N[C@@H](CCCNC(=N)N)C(=O)N[C@@H](CCC(N)=O)C(=O)N[C@@H](CC(C)C)C(N)=O (Ac-VSYVNVNMGLKFRQL-NH2) | inactive
2 | CC(C)C[C@H](NC(=O)[C@H](C)NC(=O)[C@@H](NC(=O)[C@H](Cc1c[nH]cn1)NC(=O)[C@H](Cc1c[nH]cn1)NC(=O)[C@@H]1CCCN1C(=O)[C@H](CO)NC(=O)[C@H](CS)NC(=O)[C@H](Cc1c[nH]cn1)NC(=O)[C@H](CCC(=O)O)NC(=O)[C@@H]1CCCN1C(=O)[C@H](CO)NC(=O)[C@H](CCC(=O)O)NC(=O)[C@H](CC(C)C)NC(=O)[C@H](C)N)[C@@H](C)O)C(N)=O (H-ALESPEHCSPHHTAL-NH2) | inactive
3 | CC(C)C[C@H](NC(=O)[C@H](C)N)C(=O)N[C@@H](Cc1ccc(O)cc1)C(=O)N[C@@H](CCCNC(=N)N)C(=O)N[C@@H](CCC(=O)O)C(=O)N[C@@H](C)C(=O)N[C@@H](CC(C)C)C(=O)N[C@@H](CCC(=O)O)C(=O)N[C@@H](CO)C(=O)N1CCC[C@H]1C(=O)N[C@@H](CCC(=O)O)C(=O)N[C@@H](Cc1c[nH]cn1)C(=O)N[C@@H](CS)C(=O)N[C@@H](CO)C(=O)N1CCC[C@H]1C(N)=O (H-ALYREALESPEHCSP-NH2) | inactive
4 | CC[C@H](C)[C@H](NC(=O)[C@@H]1CCCN1C(=O)[C@H](C)NC(=O)[C@H](CC(N)=O)NC(=O)[C@@H]1CCCN1C(=O)[C@@H]1CCCN1C(=O)[C@H](CCCNC(=N)N)NC(=O)[C@H](Cc1ccc(O)cc1)NC(=O)[C@H](C)N)C(=O)N[C@@H](CC(C)C)C(=O)N[C@@H](CO)C(=O)N[C@H](C(=O)N[C@@H](CC(C)C)C(=O)N1CCC[C@H]1C(=O)N[C@@H](CCC(=O)O)C(N)=O)[C@@H](C)O (H-AYRPPNAPILSTLPE-NH2) | inactive
5 | CC[C@H](C)[C@H](NC(=O)[C@H](C)NC(=O)[C@H](CCC(N)=O)NC(=O)[C@@H]1CCCN1C(=O)[C@H](CC(C)C)NC(=O)[C@H](C)NC(=O)[C@@H](NC(=O)[C@H](Cc1c[nH]cn1)NC(=O)[C@H](Cc1c[nH]cn1)NC(=O)[C@@H]1CCCN1C(=O)[C@H](CO)NC(=O)[C@H](CS)NC(=O)[C@H](Cc1c[nH]cn1)NC(=O)[C@@H](N)CCC(=O)O)[C@@H](C)O)C(=O)N[C@@H](CC(C)C)C(N)=O (H-EHCSPHHTALPQAIL-NH2) | inactive
6 | CC(C)C[C@H](NC(=O)[C@H](Cc1ccc(O)cc1)NC(=O)[C@H](CCC(=O)O)NC(=O)[C@H](CC(C)C)NC(=O)[C@@H](NC(=O)[C@@H](NC(=O)[C@H](CCC(=O)O)NC(=O)[C@H](CCCNC(=N)N)NC(=O)CN)[C@@H](C)O)C(C)C)C(=O)N[C@H](C(=O)N[C@@H](CO)C(=O)N[C@@H](Cc1ccccc1)C(=O)NCC(=O)N[C@H](C(=O)N[C@@H](Cc1c[nH]c2ccccc12)C(N)=O)C(C)C)C(C)C (H-GRETVLEYLVSFGVW-NH2) | inactive
7 | CC[C@H](C)[C@H](NC(=O)[C@H](C)NC(=O)[C@H](CCC(N)=O)NC(=O)[C@@H]1CCCN1C(=O)[C@H](CC(C)C)NC(=O)[C@H](C)NC(=O)[C@@H](NC(=O)[C@H](Cc1c[nH]cn1)NC(=O)[C@@H](N)Cc1c[nH]cn1)[C@@H](C)O)C(=O)N[C@@H](CC(C)C)C(=O)N[C@@H](CS)C(=O)N[C@@H](Cc1c[nH]c2ccccc12)C(=O)NCC(=O)N[C@@H](CCC(=O)O)C(=O)N[C@@H](CC(C)C)C(N)=O (H-HHTALPQAILCWGEL-NH2) | inactive
8 | CC[C@H](C)[C@H](N)C(=O)N[C@@H](CCCNC(=N)N)C(=O)N[C@H](C(=O)N1CCC[C@H]1C(=O)N1CCC[C@H]1C(=O)N[C@@H](C)C(=O)N[C@@H](Cc1ccc(O)cc1)C(=O)N[C@@H](CCCNC(=N)N)C(=O)N1CCC[C@H]1C(=O)N1CCC[C@H]1C(=O)N[C@@H](CC(N)=O)C(=O)N[C@@H](C)C(=O)N1CCC[C@H]1C(=O)N[C@H](C(=O)N[C@@H](CC(C)C)C(N)=O)[C@@H](C)CC)[C@@H](C)O (H-IRTPPAYRPPNAPIL-NH2) | inactive
9 | CC[C@H](C)[C@H](NC(=O)[C@H](Cc1c[nH]cn1)NC(=O)[C@H](Cc1ccccc1)NC(=O)[C@H](Cc1c[nH]c2ccccc12)NC(=O)[C@H](CC(C)C)NC(=O)[C@H](CC(C)C)NC(=O)[C@H](CCC(N)=O)NC(=O)[C@H](CCCNC(=N)N)NC(=O)[C@H](Cc1ccccc1)NC(=O)[C@@H](N)CCCCN)C(=O)N[C@@H](CO)C(=O)N[C@@H](CS)C(=O)N[C@@H](CC(C)C)C(=O)N[C@H](C(=O)N[C@@H](Cc1ccccc1)C(N)=O)[C@@H](C)O (H-KFRQLLWFHISCLTF-NH2) | inactive
10 | CC(C)C[C@H](NC(=O)[C@H](C)NC(=O)[C@H](CO)NC(=O)[C@H](C)NC(=O)[C@@H](NC(=O)[C@H](CC(=O)O)NC(=O)[C@@H](N)CC(C)C)[C@@H](C)O)C(=O)N[C@@H](Cc1ccc(O)cc1)C(=O)N[C@@H](CCCNC(=N)N)C(=O)N[C@@H](CCC(=O)O)C(=O)N[C@@H](C)C(=O)N[C@@H](CC(C)C)C(=O)N[C@@H](CCC(=O)O)C(=O)N[C@@H](CO)C(=O)N1CCC[C@H]1C(N)=O (H-LDTASALYREALESP-NH2) | inactive
11 | CC[C@H](C)[C@H](NC(=O)[C@H](Cc1c[nH]c2ccccc12)NC(=O)[C@@H](NC(=O)CNC(=O)[C@H](Cc1ccccc1)NC(=O)[C@H](CO)NC(=O)[C@@H](NC(=O)[C@H](CC(C)C)NC(=O)[C@H](Cc1ccc(O)cc1)NC(=O)[C@H](CCC(=O)O)NC(=O)[C@@H](N)CC(C)C)C(C)C)C(C)C)C(=O)N[C@@H](CCCNC(=N)N)C(=O)N[C@H](C(=O)N1CCC[C@H]1C(=O)N1CCC[C@H]1C(N)=O)[C@@H](C)O (H-LEYLVSFGVWIRTPP-NH2) | inactive
12 | CC[C@H](C)[C@H](NC(=O)[C@H](Cc1c[nH]cn1)NC(=O)[C@H](Cc1ccccc1)NC(=O)[C@H](Cc1c[nH]c2ccccc12)NC(=O)[C@@H](N)CC(C)C)C(=O)N[C@@H](CO)C(=O)N[C@@H](CS)C(=O)N[C@@H](CC(C)C)C(=O)N[C@H](C(=O)N[C@@H](Cc1ccccc1)C(=O)NCC(=O)N[C@@H](CCCNC(=N)N)C(=O)N[C@@H](CCC(=O)O)C(=O)N[C@H](C(=O)N[C@H](C(N)=O)C(C)C)[C@@H](C)O)[C@@H](C)O (H-LWFHISCLTFGRETV-NH2) | inactive
13 | N=C(N)NCCC[C@H](NC(=O)[C@@H]1CCCN1)C(=O)N[C@@H](CCCNC(=N)N)C(=O)N[C@@H](CCCNC(=N)N)C(=O)N[C@@H](CCCNC(=N)N)C(=O)N[C@@H](CO)C(=O)N[C@@H](CCC(N)=O)C(=O)N[C@@H](CO)C(=O)N[C@@H](CCCNC(=N)N)C(=O)N[C@@H](CCC(=O)O)C(=O)N[C@@H](CO)C(=O)N[C@@H](CCC(N)=O)C(=O)N[C@@H](CS)C(N)=O (H-PRRRRSQSRESQC-NH2) | inactive
14 | C[C@@H](O)[C@H](NC(=O)[C@H](CCCNC(=N)N)NC(=O)[C@H](CCCNC(=N)N)NC(=O)[C@H](CCCNC(=N)N)NC(=O)[C@@H]1CCCN1)C(=O)N1CCC[C@H]1C(=O)N[C@@H](CO)C(=O)N1CCC[C@H]1C(=O)N[C@@H](CCCNC(=N)N)C(=O)N[C@@H](CCCNC(=N)N)C(=O)N[C@@H](CCCNC(=N)N)C(=O)N[C@@H](CCCNC(=N)N)C(=O)N[C@@H](CO)C(=O)N[C@@H](CCC(N)=O)C(=O)N[C@@H](CO)C(N)=O (H-PRRRTPSPRRRRSQS-NH2) | inactive
15 | N=C(N)NCCC[C@H](NC(=O)[C@H](CCCNC(=N)N)NC(=O)[C@H](CCCNC(=N)N)NC(=O)[C@H](CCCNC(=N)N)NC(=O)[C@@H]1CCCN1C(=O)[C@H](CO)NC(=O)[C@H](CCC(N)=O)NC(=O)[C@H](CO)NC(=O)[C@H](CCCNC(=N)N)NC(=O)[C@H](CCCNC(=N)N)NC(=O)[C@H](CCCNC(=N)N)NC(=O)[C@H](CCCNC(=N)N)NC(=O)[C@@H]1CCCN1C(=O)[C@H](CO)NC(=O)[C@@H]1CCCN1)C(N)=O (H-PSPRRRRSQSPRRRR-NH2) | inactive
16 | N=C(N)NCCC[C@H](NC(=O)[C@H](CO)NC(=O)[C@H](CCC(N)=O)NC(=O)[C@H](CO)NC(=O)[C@H](CCCNC(=N)N)NC(=O)[C@H](CCCNC(=N)N)NC(=O)[C@H](CCCNC(=N)N)NC(=O)[C@H](CCCNC(=N)N)NC(=O)[C@@H]1CCCN1C(=O)[C@H](CO)NC(=O)[C@@H](N)CCC(N)=O)C(=O)N[C@@H](CCC(=O)O)C(=O)N[C@@H](CO)C(=O)N[C@@H](CCC(N)=O)C(=O)N[C@@H](CS)C(N)=O (H-QSPRRRRSQSRESQC-NH2) | inactive
17 | C[C@@H](O)[C@H](NC(=O)[C@H](CCCNC(=N)N)NC(=O)[C@H](CCCNC(=N)N)NC(=O)[C@H](CCCNC(=N)N)NC(=O)[C@@H]1CCCN1C(=O)[C@H](CO)NC(=O)[C@H](CCCNC(=N)N)NC(=O)CNC(=O)[C@H](CCCNC(=N)N)NC(=O)[C@@H](N)CCCNC(=N)N)C(=O)N1CCC[C@H]1C(=O)N[C@@H](CO)C(=O)N1CCC[C@H]1C(=O)N[C@@H](CCCNC(=N)N)C(=O)N[C@@H](CCCNC(=N)N)C(N)=O (H-RRGRSPRRRTPSPRR-NH2) | inactive
18 | N=C(N)NCCC[C@H](NC(=O)[C@H](CO)NC(=O)[C@H](CCC(N)=O)NC(=O)[C@H](CO)NC(=O)[C@H](CCCNC(=N)N)NC(=O)[C@H](CCCNC(=N)N)NC(=O)[C@H](CCCNC(=N)N)NC(=O)[C@H](CCCNC(=N)N)NC(=O)[C@@H]1CCCN1C(=O)[C@H](CO)NC(=O)[C@H](CCC(N)=O)NC(=O)[C@H](CO)NC(=O)[C@H](CCCNC(=N)N)NC(=O)[C@@H](N)CCCNC(=N)N)C(=O)N[C@@H](CCC(=O)O)C(N)=O (H-RRSQSPRRRRSQSRE-NH2) | inactive
19 | CC(C)C[C@H](NC(=O)[C@H](Cc1ccc(O)cc1)NC(=O)[C@H](CCC(=O)O)NC(=O)[C@H](CC(C)C)NC(=O)[C@@H](NC(=O)[C@@H](NC(=O)[C@H](CCC(=O)O)NC(=O)[C@H](CCCNC(=N)N)NC(=O)CNC(=O)[C@H](Cc1ccccc1)NC(=O)[C@@H](NC(=O)[C@H](CC(C)C)NC(=O)[C@H](CS)NC(=O)[C@@H](N)CO)[C@@H](C)O)[C@@H](C)O)C(C)C)C(=O)N[C@H](C(N)=O)C(C)C (H-SCLTFGRETVLEYLV-NH2) | inactive
